Molecules are shown by their SMILES. Converted amounts (≈) assume the structure as drawn.

In this series the test system is Spodoptera littoralis (Boisd.) 2nd and 4th instar larvae. In words: Insecticidal bioassay screening (castor leaf dip, larval mortality). It is filed as in vivo. To be noted: for Toxic ratio: fenoxycarb's LC50 / compound's LC50 × 100. How it is done: Five concentrations (200, 100, 50, 25, 12.5 ppm) were designed for this synthetic compound and the reference fenoxycarb compound as the dynamic ingredients based on ppm via diluting the commercial formulation.
In this experiment, castor leaves are immersed in each of the previously prepared concentrations of the components for 10 seconds and then left to dry for 60 minutes. Larvae of the second and fourth instars of each checked strain are prepared with treated leaves in gauze-covered glass containers for 72 hrs. An untreated control is made in which leaves are dipped in triton x-100 and distilled water only. Then the preserved leaves were removed & fresh, untreated leaves were provided for 72 hours. Three replicates (10 larvae each) were checked for each concentration. Daily inspection was carried out for all treatments and mortality percentages were recorded 3 days (72 hours) after treatment. The average mortality percentage was corrected employing Abbott's formula. The corrected mortality rate for each of the previously synthesized compounds is statistically calculated according to Finney (1970). Through this rate, the corresponding concentration test lines (LDP lines) are assessed. Fifty and ninety percent mortality are determined, and the regression values for the checked products were previously evaluated.

[1] abbreviates: Spodoptera littoralis, foliar, 72 h, 2nd instar larvae of S. littoralis, after 72 h of treatment.
Setting [2] is: Spodoptera littoralis, foliar, 72 h, 4th instar larvae of S. littoralis, after 72 h of treatment.
Setting [3] is: Spodoptera littoralis, foliar, against Spodoptera littoralis under laboratory conditions (instar not given).

As for `O=C(O)c1cn(C2CC2)c2cc(N3CCN(CC(O)COc4ccc5ccccc5c4)CC3)c(F)cc2c1=O` (stereo not shown) [listing 1 of 2 here], for the setting “in vivo”, the LC50 result is on record as “about 103.01 ppm”.
Same read-out and setting: next, `O=C(O)c1cn(C2CC2)c2cc(N3CCN(CC(O)COc4ccc5ccccc5c4)CC3)c(F)cc2c1=O` (stereo not shown) [listing 2 of 2 here]: “about 44.08 ppm”.
Consider `O=C(O)c1cn(C2CC2)c2cc(N3CCN(CC(O)COc4ccc5ccccc5c4)CC3)c(F)cc2c1=O` (stereo not shown) [Compound 7], for which the Toxic ratio turned out to be 6.1 (2nd instar larvae, 72 h) and 41.9 (4th instar larvae, 72 h). Moreover, the LC50 was found to be 44.1 µg/mL (≈ 82.9 µM) under setting [1], 103 µg/mL (≈ 194 µM) under setting [2] and 44.1 µg/mL (≈ 82.9 µM) under setting [3]. Moreover, the “activity against Spodoptera littoralis (in words)” value (compared with reference insecticide fenoxycarb) is “active against Spodoptera littoralis”.
Regarding `CCOC(=O)NCCOc1ccc(Oc2ccccc2)cc1` [Fenoxycarb, reference compound], the Toxic ratio (2nd instar larvae, 72 h) came out at 100 and the Toxic ratio (4th instar larvae, 72 h) is 1. Besides, the LC50 came to 2.73 µg/mL (≈ 9.06 µM) under setting [1], 43.2 µg/mL (≈ 143 µM) under setting [2] and 2.73 µg/mL (≈ 9.06 µM) under setting [3].

By LC50 is commonly meant the concentration that kills 50% of the test population. High values mean a less lethal substance, low ones a more lethal substance.

For the origin of these results see US11905251B1, “1-cyclopropyl-6-fluoro-7-(4-(2-hydroxy-3-(naphthalen-2-yloxy)propylpiperazin-1-yl)-4-oxo-1,4-dihydroquinoline-3-carboxylic acid as an eco-friendly insecticidal agent against Spodoptera littoralis (boisd.)” (priority 2023, dated 2024).
